Data taken from article PMC8538057, “Direct Delivery of ANA-TA9, a Peptide Capable of Aβ Hydrolysis, to the Brain by Intranasal Administration” (Pharmaceutics, 2021).
Read-outs that look alike come from different tables or passages of the source. Ends that are not written are not given here.

How the values were obtained:
[1] = Degradation of ANA-TA9 in the rat nasal cavity (nasal perfusion); type: in vivo; conditions: 15 mL PBS at 10 μg/mL, 120 min, LC/MS, mean of three experiments
Protocol: Polyethylene tubing was inserted into the rat esophagus and trachea according to the method of Hirai et al.. Briefly, under anesthesia with the anesthetic mixture described in Section 2.3.2, the trachea was cannulated with polyethylene tubing, and another tube was inserted from the esophagus to the posterior part of the nasal cavity. The nasopalatine was closed with surgical adhesive. A solution of ANA-TA9 (15 mL PBS at 10 μg/mL) was perfused from the esophagus through the nasal cavity using a peristaltic pump (SJ-1211-H; ATTO, Tokyo, Japan). The perfusing solution of ANA-TA9 was sampled at predetermined times. The ANA-TA9 concentration in the perfusate was measured by liquid chromatography-mass spectrometry (LC/MS) after the same pretreatment as that of the plasma described in Section 2.4.2.

[2] = In vivo brain distribution study after i.n. and i.p. administration to mice; parameters: species or system Male ddY mice; conditions: mouse; for Tmax: plasma
Protocol: For i.n. administration, ANA-TA9 was dissolved in PBS at a concentration of 100 mg/mL. Since the profile of the concentration in the plasma after i.p. administration was similar with that after i.n. administration, i.p. administration served as the control for i.n. administration. The nasal solution was diluted to 10 mg/mL for i.p. administration. Male ddY mice weighing 25 g were purchased from Japan SLC. The animals were maintained under conventional housing conditions. After anesthetization by the inhalation of isoflurane (2%), ANA-TA9 solution (5 μL each) was administered to both nostrils of the mice. The ANA-TA9 solution (100 μL) was administered peritoneally. After making an incision in the abdomen at 5, 15, 30, 45, 60, and 90 min after administration, blood was collected from the postcaval vein. Soon after the blood sampling, the heparinized ice-cold saline was flushed by perfusion from the left ventricle to remove the blood from the cerebral blood vessel. The whole brain was removed; washed with ice-cold saline; and divided into three sections: olfactory bulb, frontal brain, and occipital brain. The tissue concentrations of ANA-TA9 were measured with LC/MS. The plasma and brain concentrations of ANA-TA9 were determined by LC/MS, LC-20A, and LCMS-2020 (SHIMADZU, Kyoto, Japan). Briefly, 100 μL of the plasma were mixed with 1000 μL of methanol. […] To the dissected brain tissue, 100 μL of ice-cold purified water were added, and the mixture was homogenized under ice-cold conditions. To the homogenate, 4000 μL of ice-cold methanol were added. […] The residues were reconstituted with 100 μL of the mobile phase of the chromatography. In the preliminary study, it was confirmed that the effect of rapid degradation of ANA-TA9 on the assay could be excluded by the treatment on the blood and brain tissues mentioned above. Chromatographic separation was performed using a C18 analytical column (TSKgel ODS 100V, 3 μm, 2.0 mm × 100 mm; TOSOH, Tokyo, Japan). The mobile phase was acetonitrile/0.1% acetic acid (10/90), and the flow rate was 0.2 mL/min. ANA-TA9 eluting from the column was detected with mass spectrometry under the positive mode. Nitrogen gas was used for nebulization at a flow rate of 1.5 L/min. Other conditions (temperature and voltage) were set as the default. The calibration curves of ANA-TA9 in the plasma and the brain were determined. […] For the calculation of the direct transport percentage (DTP), the equation by Fukuda M. et al. was slightly modified. The modified equation is as follows:(1) %DTP=(AUCbrain)IN−(AUCbrain)X/(AUCbrain)IN×100 (2) (AUCbrain)X=(AUCbrain)IP/(AUCplasma)IP×(AUCplasma)IN in the above equation, AUCbrain,i.p. and AUCplasma,i.p. are used in place of AUCbrain,i.v. and AUCplasma,i.v. in the original equation by Fukuda M. et al.

## SKGQAYRMI [ANA-TA9]
[1]
  concentration in the nasal perfusate, % of the initial concentration: 54%
[2]; male, ddY, in vivo, inhaled or intranasal, 1 mg
  tissue level at time at 5 min: 712 ± 54 ng/g
[2]; male, ddY, inhaled or intranasal, 1 mg, i.n., read-out: time of peak plasma concentration, i.n. (converted)
  Tmax: 5 min
[2]; male, ddY, ip, 1 mg, i.p., read-out: time of peak plasma concentration, i.p. (converted)
  Tmax: 5 min
[2]; i.n.
  time of peak concentration in the frontal brain, i.n.: 30 min
  time of peak concentration in the occipital brain, i.n.: 30 min
  time of peak concentration in the olfactory bulb, i.n.: 5 min
[2]; i.n. vs i.p., from the AUC up to 90 min after administration, mean ± SE of four or five animals
  DTP (direct transport percentage), olfactory bulb: 96.3 ± 0.9%
[2]; i.p.
  time of peak concentration in the olfactory bulb, i.p.: 15 min
[2]; in vivo
  apparent half-life in the olfactory bulb after i.n. administration: 15 min
  time after i.n. administration at which ANA-TA9 could be detected in the olfactory bulb: 60 min
[2]; in vivo, ip
  concentration in the olfactory bulb more than 45 min after i.p. application: below the limit of detection
  peak plasma concentration, i.p. relative to i.n. (times higher): approximately 11 times
